Several values for one entry are separate records, joined by “and”; a condition that tells them apart may be missing. Equal entries are not always repeated. Where two headings read alike, the source gives them in different places. Bridge positions count the residues as written; N and C are the ends. Square brackets hold non-standard residues; d marks the D form. Peptide text beside a SMILES is read from it. * marks the point of attachment. ξ: configuration not given here. DOTA = O=C(O)CN1CCN(CC(=O)O)CCN(CC(=O)*)CCN(CC(=O)O)CC1; dPhe(4-NHCONH2) = NC(=O)Nc1ccc(C[C@@H](N)C(=O)O)cc1; Phe(4-NHCONH2) = NC(=O)Nc1ccc(C[C@H](N)C(=O)O)cc1; dTrp(5-F) = N[C@H](Cc1c[nH]c2ccc(F)cc12)C(=O)O; Phe(4-Cl) = N[C@@H](Cc1ccc(Cl)cc1)C(=O)O; ξDihydroorotoyl = O=C1CC(C(=O)*)NC(=O)N1; 2Nal = N[C@@H](Cc1ccc2ccccc2c1)C(=O)O; ξPhe(4-NH2) = Nc1ccc(CC(N)C(=O)O)cc1
Key:
sst2 = sst2 (Homo sapiens, UniProt P30874); assay: Calcium release assay in HEK-sst2 cells (Fluo-4NW); assay type: cell-based; design: expressed in transfected cells; host or cells: HEK293 (HEK-sst2); settings: n ≧ 2
Sequence of sst2 (P30874 whole entry): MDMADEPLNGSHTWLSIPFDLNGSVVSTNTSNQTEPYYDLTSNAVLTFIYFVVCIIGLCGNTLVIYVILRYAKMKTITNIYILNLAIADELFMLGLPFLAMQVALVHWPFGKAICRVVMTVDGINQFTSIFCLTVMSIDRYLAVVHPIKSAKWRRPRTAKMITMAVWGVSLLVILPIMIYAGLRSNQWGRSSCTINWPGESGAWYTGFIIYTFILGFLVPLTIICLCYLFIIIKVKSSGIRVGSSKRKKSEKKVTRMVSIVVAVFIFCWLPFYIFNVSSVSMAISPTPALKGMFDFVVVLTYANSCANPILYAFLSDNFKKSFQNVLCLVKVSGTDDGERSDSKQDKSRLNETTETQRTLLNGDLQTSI
Procedure: Calcium release assay. Intracellular calcium release was measured in HEK-sst2 using the Fluo-4NW Calcium Assay kit as described previously (Magrys, et al. “The role of anti-alpha-enolase autoantibodies in pathogenicity of autoimmune-mediated retinopathy.” J. Clin. Immunol. 2007, 27, 181-192; Michel et al. “The Nef protein of human immunodeficiency virus is a broad-spectrum modulator of chemokine receptor cell surface levels that acts independently of classical motifs for receptor endocytosis and Galphai signaling.” Mol. Biol. Cell. 2006, 17, 3578-3590). In brief, HEK-sst2 cells were seeded (25,000 cells per well) in poly-D-lysine (20 μg/mL) coated 96 well plates and cultured for 1 day at 37° C. and 5% CO2 in culture medium. At the day of the experiment, the cells were washed with assay buffer (1×HBSS, 20 mM HEPES) containing 2.5 mM probenecid, and then loaded with 100 μL/well Fluo-4NW dye in assay buffer containing 2.5 mM probenecid for 30 min at 37° C. and 5% CO2 and then for further 30 min at room temperature. To measure the intracellular calcium mobilization after stimulation with the SRIF analogues to be tested, the dye-loaded cells were transferred to a SpectraMax M2^e (Molecular Devices, Sunnyvale, Calif.). Intracellular calcium mobilization was recorded in a kinetic for 60 sec at room temperature monitoring fluorescence emission at 520 nm (with λex=485 nm) in the presence of the analogues at the concentrations indicated. Maximum fluorescence (Fmax) was measured after the addition of 25 μM ionomycin. Baseline (control) measurements were taken for dye-loaded, untreated cells. Data are shown as percentage of Fmax (% Fmax) as reported previously. (Magrys, et al. J. Clin. Immunol. 2007, 27, 181-192; Michel et al. Mol. Biol. Cell. 2006, 17, 3578-3590). All experiments were repeated at least three times in triplicate.

human sst2A receptor = target: T1, human sst2A receptor (Homo sapiens, UniProt P30874); assay: Immunofluorescence-based sst2 internalization assay in HEK-sst2 cells; assay type: cell-based; settings: for sst2-internalization tested in vitro in HEK-sst2 cells (function): n ≧ 2
T1 construct: expressed in transfected cells; host or cells: HEK293 (HEK-sst2)
T1 sequence (P30874 whole entry): as above
Procedure: Immunofluorescence-based sst2 Internalization Assay. Immunofluorescence microscopy-based internalization assay for sst2 was performed with HEK-sst2 using the sst2-specific antibody R2-88 as described elsewhere herein. HEK-sst2 cells were treated either with vehicle alone, the sst2 agonist [Tyr^3]-octreotide at a concentration of 100 nM, [Tyr^3]-octreotide at a concentration of 100 nM in the presence of an excess of the SRIF analogues to be tested (100 times the concentration of [Tyr^3]-octreotide), or with the SRIF analogues to be tested alone at a concentration of 10 μM, and then processed for immunofluorescence microscopy as described previously.

hSSTR3 = target: T2, hSSTR3 (Homo sapiens, UniProt P32745); assay: Receptor autoradiography, displacement of 125I-[Leu8,D-Trp22,Tyr25]-SRIF-28 from membrane pellet sections; assay type: binding
T2 construct: expressed in transfected cells; host or cells: CHO-K1 or CCL39 cells
T2 sequence (P32745 whole entry): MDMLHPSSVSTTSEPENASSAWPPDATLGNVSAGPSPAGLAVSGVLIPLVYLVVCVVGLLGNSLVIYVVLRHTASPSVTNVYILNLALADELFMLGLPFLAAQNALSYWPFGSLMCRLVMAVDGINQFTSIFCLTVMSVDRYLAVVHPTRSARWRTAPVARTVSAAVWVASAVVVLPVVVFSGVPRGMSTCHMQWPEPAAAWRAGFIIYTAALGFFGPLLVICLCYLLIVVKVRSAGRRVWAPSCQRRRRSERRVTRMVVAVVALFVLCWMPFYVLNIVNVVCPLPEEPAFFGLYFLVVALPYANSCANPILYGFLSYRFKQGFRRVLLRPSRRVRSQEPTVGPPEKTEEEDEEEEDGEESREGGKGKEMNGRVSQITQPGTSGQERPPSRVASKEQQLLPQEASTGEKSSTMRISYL
Procedure: (§1) Generally, recombinant cells expressing the receptor are washed and homogenized to prepare a crude protein homogenate in a suitable buffer. In a typical assay, an amount of protein from the cell homogenate is placed into a small volume of an appropriate assay buffer at an appropriate pH. Candidate substances, such as potential SRIF agonists and antagonists, are added to the admixture in convenient concentrations, and the interaction between the candidate substance and the receptor polypeptide is monitored.
(§2) In vitro Bioassay: The effects of the various somatostatin analogs were tested in vitro for their ability to bind to isolated cloned receptors expressed on CHO-K1 cells and CCL39 cells. The molecular cloning of the genes encoding multiple somatostatin receptor subtypes permitted the individual expression of these receptors in mammalian cells and the characterization of their respective pharmacological profiles.
(§3) CHO-K1 cells were grown in Ham's F-12 medium, and CCL39 cells were grown in Dulbecco's modified Eagle's medium/Ham's F-12(1:1) mix, supplemented with 10% fetal bovine serum, 100 U/ml penicillin and 100 μg/ml streptomycin, in humidified air containing 5% CO2 at 37° C. Cells were washed twice with and scraped into ice-cold 0.05 M Tris-HCl (pH 7.4), collected by centrifugation, and homogenized using a rotor/stator/system in the same buffer. After centrifugation at 120 g for 5 min at 4° C., the supernatant was collected and centrifuged again at 48,000 g for 30 min at 4° C. The resulting pellet was resuspended in ice-cold Tris buffer, transferred into a microfuge tube, and centrifuged at 20,000 g for 15 min at 4° C. After withdrawal of the supernatant, the membrane pellet was stored at −80° C.
(§4) Receptor autoradiography was performed on 20 μm thick cryostat sections of the membrane pellets, mounted on microscope slides, and then stored at −20° C. […] Increasing concentrations of the unlabeled peptide were used ranging from 0.1-1000 nM. […] IC50 values were calculated after quantification of the data using a computer-assisted image processing system as known in this art.
(§5) The numbers in parentheses indicate the number of times the particular binding test was carried out.
(§6) Receptor autoradiography. Cell membrane pellets were prepared as previously described, and stored at −80° C. Receptor autoradiography was performed on 20-μm thick cryostat (Microm HM 500, Walldorf, Germany) sections of the membrane pellets, mounted on microscope slides, and then stored at −20° C. […] After a brief dip in distilled water to remove excess salts, the sections were dried quickly and exposed for 1 week to Kodak BioMax MR film. IC50 values were calculated after quantification of the data using a computer-assisted image processing system as described previously. […] (Reubi, J. C. “In vitro identification of vasoactive intestinal peptide receptors in human tumors: Implications for tumor imaging.” J. Nucl. Med. 1995, 36, 1846-1853).
(§7) To investigate their ssts binding properties, the peptides were tested for their ability to bind to cryostat sections from membrane pellets of cells expressing the five human ssts (Table 3).

hSSTR5 = target: T3, hSSTR5 (Homo sapiens, UniProt P35346); assay: as above; assay type: binding
T3 construct: expressed in transfected cells; host or cells: CHO-K1 or CCL39 cells
T3 sequence (P35346 whole entry): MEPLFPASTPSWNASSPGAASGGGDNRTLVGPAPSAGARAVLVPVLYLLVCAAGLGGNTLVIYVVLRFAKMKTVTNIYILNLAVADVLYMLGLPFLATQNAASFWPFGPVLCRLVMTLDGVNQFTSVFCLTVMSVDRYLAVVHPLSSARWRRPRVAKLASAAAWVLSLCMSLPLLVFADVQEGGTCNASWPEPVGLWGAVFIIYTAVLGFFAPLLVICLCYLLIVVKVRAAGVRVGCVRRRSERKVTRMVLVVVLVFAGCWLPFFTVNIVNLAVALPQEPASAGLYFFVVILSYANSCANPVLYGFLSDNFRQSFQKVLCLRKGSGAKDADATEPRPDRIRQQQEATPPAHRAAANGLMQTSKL
Procedure: as §1, §2, §3, §4, §5, §6, §7

hSSTR2 = target: T4, hSSTR2 (Homo sapiens, UniProt P30874); assay: as above; assay type: binding
T4 construct: expressed in transfected cells; host or cells: CHO-K1 or CCL39 cells
T4 sequence (P30874 whole entry): as the sequence (P30874 whole entry) above
Procedure: as §1, §2, §3, §4, §5, §6, §7

hSSTR4 = target: T5, hSSTR4 (Homo sapiens, UniProt P31391); assay: as above; assay type: binding
T5 construct: expressed in transfected cells; host or cells: CHO-K1 or CCL39 cells
T5 sequence (P31391 whole entry): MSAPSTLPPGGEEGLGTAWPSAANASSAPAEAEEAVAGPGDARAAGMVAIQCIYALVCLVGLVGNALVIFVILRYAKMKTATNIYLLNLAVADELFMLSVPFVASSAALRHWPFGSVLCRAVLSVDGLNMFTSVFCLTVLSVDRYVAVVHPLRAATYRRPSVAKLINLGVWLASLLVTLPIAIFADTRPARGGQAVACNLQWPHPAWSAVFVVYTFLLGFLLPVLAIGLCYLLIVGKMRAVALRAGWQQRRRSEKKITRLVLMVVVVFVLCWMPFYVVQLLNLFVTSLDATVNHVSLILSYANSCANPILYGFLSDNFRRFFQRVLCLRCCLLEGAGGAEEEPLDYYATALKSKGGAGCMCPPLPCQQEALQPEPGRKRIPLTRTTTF
Procedure: as §1, §2, §3, §4, §5, §6, §7

hSSTR1 = target: T6, hSSTR1 (Homo sapiens, UniProt P30872); assay: as above; assay type: binding
T6 construct: expressed in transfected cells; host or cells: CHO-K1 or CCL39 cells
T6 sequence (P30872 whole entry): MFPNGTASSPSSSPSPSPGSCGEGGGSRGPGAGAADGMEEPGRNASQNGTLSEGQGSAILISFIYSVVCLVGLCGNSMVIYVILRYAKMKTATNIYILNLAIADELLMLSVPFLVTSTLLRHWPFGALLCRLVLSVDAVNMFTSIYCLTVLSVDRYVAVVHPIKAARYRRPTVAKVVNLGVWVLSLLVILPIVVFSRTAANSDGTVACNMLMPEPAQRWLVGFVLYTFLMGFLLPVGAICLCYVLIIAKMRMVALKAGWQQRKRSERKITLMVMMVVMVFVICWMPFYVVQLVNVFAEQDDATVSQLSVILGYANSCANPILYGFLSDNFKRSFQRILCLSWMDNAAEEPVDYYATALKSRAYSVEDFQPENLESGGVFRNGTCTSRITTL
Procedure: as §1, §2, §3, §4, §5, §6, §7

[1] = Table 3, mean ± SEM when N ≧ 3, read-out: sst3 binding affinity (IC50)
[2] = Table 3, mean ± SEM when N ≧ 3, read-out: sst5 binding affinity (IC50)
[3] = Table 3, mean ± SEM when N ≧ 3, read-out: sst2 binding affinity (IC50)
[4] = Table 3, mean ± SEM when N ≧ 3, read-out: sst4 binding affinity (IC50)
[5] = Table 3, mean ± SEM when N ≧ 3, read-out: sst1 binding affinity (IC50)
[6] = Table 1, inhibition of radioligand binding to cloned human receptor, read-out: IC50 hSSTR2

Compound	Calcium release tested in vitro in HEK-sst2 cells (function) (sst2)	sst2-internalization tested in vitro in HEK-sst2 cells (function) (human sst2A receptor)	IC50 (hSSTR3; [1])	IC50 (hSSTR5; [2])	IC50 (hSSTR2; [3])	IC50 (hSSTR4; [4])	IC50 (hSSTR1; [5])	effect on binding of the SRIF-28 radioligand to SSTR3 (hSSTR3; 100 nM)	effect on binding of the SRIF-28 radioligand to SSTR5 (hSSTR5; 100 nM)	IC50 (hSSTR2; [6])	effect on binding of the SRIF-28 radioligand to SSTR4 (hSSTR4; 100 nM)	effect on binding of the SRIF-28 radioligand to SSTR1 (hSSTR1; 100 nM)	sst2 internalization, given alone (human sst2A receptor; FIG. 2, antagonists at 10 μM)	IC50 (hSSTR3; Table 1, inhibition of radioligand binding to cloned human receptor, read-out: IC50 hSSTR3)	IC50 (hSSTR5; Table 1, inhibition of radioligand binding to cloned human receptor, read-out: IC50 hSSTR5)	IC50 (hSSTR4; Table 1, inhibition of radioligand binding to cloned human receptor, read-out: IC50 hSSTR4)	IC50 (hSSTR1; Table 1, inhibition of radioligand binding to cloned human receptor, read-out: IC50 hSSTR1)
C[C@@H](O)[C@@H]1NC(=O)[C@H](CCCCN)NC(=O)[C@@H](Cc2c[nH]c3ccccc23)NC(=O)[C@H](Cc2ccc(O)cc2)NC(=O)[C@H](NC(=O)[C@H](Cc2ccc([N+](=O)[O-])cc2)NC(=O)CN2CCN(CC(=O)O)CCN(CC(=O)O)CCN(CC(=O)O)CC2)CSSC[C@@H](C(=O)N[C@H](Cc2ccc(O)cc2)C(N)=O)NC1=O [compound 2, DOTA-pNO2Phe-c[DCys-Tyr-DTrp-Lys-Thr-Cys]-DTyr-NH2]	Antagonist	Antagonist	> 1000 nM	> 1000 nM	1.5 nM	287 ± 27 nM	> 1000 nM										
C[C@@H](O)[C@@H]1NC(=O)[C@H](CCCCN)NC(=O)[C@@H](Cc2c[nH]c3ccccc23)NC(=O)[C@H](Cc2ccc(NC(N)=O)cc2)NC(=O)[C@H](NC(=O)[C@H](Cc2ccc(Cl)cc2)NC(=O)CCNC(=O)CN2CCN(CC(=O)O)CCN(CC(=O)O)CCN(CC(=O)O)CC2)CSSC[C@@H](C(=O)N[C@@H](Cc2ccc3ccccc3c2)C(N)=O)NC1=O [compound 15, DOTA-βAla-Cpa-c[DCys-Aph(Cbm)-DTrp-Lys-Thr-Cys]-2Nal-NH2]	Antagonist	Antagonist	124 ± 53 nM	> 1000 nM	46 ± 13 nM	> 1000 nM	> 1000 nM										
C[C@@H](O)[C@@H]1NC(=O)[C@H](CCCCN)NC(=O)[C@@H](Cc2ccc(NC(N)=O)cc2)NC(=O)[C@H](Cc2ccc(O)cc2)NC(=O)[C@H](NC(=O)[C@H](Cc2ccc(Cl)cc2)NC(=O)CN2CCN(CC(=O)O)CCN(CC(=O)O)CCN(CC(=O)O)CC2)CSSC[C@@H](C(=O)N[C@@H](Cc2ccc3ccccc3c2)C(N)=O)NC1=O [Peptide No. 28, DOTA-Cpa-c[DCys-Tyr-DAph(Cbm)-Lys-Thr-Cys]-2Nal-NH2] ({DOTA}-[Phe(4-Cl)][dC]Y[dPhe(4-NHCONH2)]KTC[2Nal]-NH2; disulfide 2-7)	Antagonist	Antagonist						minimal effects	minimal effects	~1.8 nM and 1.8 nM	minimal effects	minimal effects					
C[C@@H](O)[C@@H]1NC(=O)[C@H](CCCCN)NC(=O)[C@@H](Cc2ccc(NC(N)=O)cc2)NC(=O)C(Cc2ccc(NC(=O)C3CC(=O)NC(=O)N3)cc2)NC(=O)[C@H](NC(=O)[C@@H](N)Cc2ccc(Cl)cc2)CSSC[C@@H](C(=O)N[C@@H](Cc2ccc3ccccc3c2)C(N)=O)NC1=O (stereo partly drawn) [compound 29, H2N-Cpa-c[DCys-Aph(Hor)-DAph(Cbm)-Lys-Thr-Cys]-2Nal-NH2] (H-[Phe(4-Cl)][dC][ξPhe(4-NH2)](ξDihydroorotoyl)[dPhe(4-NHCONH2)]KTC[2Nal]-NH2; disulfide 2-7)	Antagonist	Antagonist															
[Tyr^3]-octreotide [reference compound]	agonistic effect												can induce sst2 internalization				
C[C@@H](O)[C@@H]1NC(=O)[C@H](CCCCN)NC(=O)[C@@H](Cc2c[nH]c3ccccc23)NC(=O)[C@H](Cc2ccc(NC(N)=O)cc2)NC(=O)[C@H](NC(=O)[C@H](Cc2ccc(Cl)cc2)NC(=O)CN2CCN(CC(=O)O)CCN(CC(=O)O)CCN(CC(=O)O)CC2)CSSC[C@@H](C(=O)N[C@@H](Cc2ccc3ccccc3c2)C(N)=O)NC1=O [Peptide No. 14, DOTA-Cpa-c[DCys-Aph(Cbm)-DTrp-Lys-Thr-Cys]-2Nal-NH2]	Antagonist	Antagonist	972 ± 212 nM	> 1000 nM	9.8 ± 1.2 nM	831 ± 82 nM	> 1000 nM			9.4 ± 1.6 nM				> 1000 nM	> 1000 nM	816 ± 114 nM	> 1000 nM
C[C@@H](O)[C@@H]1NC(=O)[C@H](CCCCN)NC(=O)[C@@H](Cc2c[nH]c3ccc(F)cc23)NC(=O)[C@H](Cc2ccc(NC(N)=O)cc2)NC(=O)[C@H](NC(=O)[C@@H](N)Cc2ccc(Cl)cc2)CSSC[C@@H](C(=O)N[C@@H](Cc2ccc3ccccc3c2)C(N)=O)NC1=O [compound 25, H2N-Cpa-c[DCys-Aph(Cbm)-5F-DTrp-Lys-Thr-Cys]-2Nal-NH2] (H-[Phe(4-Cl)][dC][Phe(4-NHCONH2)][dTrp(5-F)]KTC[2Nal]-NH2; disulfide 2-7)	Antagonist	Antagonist	50 ± 5.8 nM	94 ± 34 nM	4.9 ± 1.5 nM	287 ± 64 nM	> 1000 nM										

From US8691761B2, “Somatostatin receptor 2 antagonists” (priority 2006, dated 2014)
